From patent US7482375B2, “Compounds useful in therapy” (Pfizer Inc., priority 2005, dated 2009)

Biological target: T1, Progesterone Receptor (PR) (Homo sapiens, UniProt P06401)
T1 construct: endogenous in cells; host or cells: T47D human breast mammary carcinoma cells
T1 sequence (P06401 1-933): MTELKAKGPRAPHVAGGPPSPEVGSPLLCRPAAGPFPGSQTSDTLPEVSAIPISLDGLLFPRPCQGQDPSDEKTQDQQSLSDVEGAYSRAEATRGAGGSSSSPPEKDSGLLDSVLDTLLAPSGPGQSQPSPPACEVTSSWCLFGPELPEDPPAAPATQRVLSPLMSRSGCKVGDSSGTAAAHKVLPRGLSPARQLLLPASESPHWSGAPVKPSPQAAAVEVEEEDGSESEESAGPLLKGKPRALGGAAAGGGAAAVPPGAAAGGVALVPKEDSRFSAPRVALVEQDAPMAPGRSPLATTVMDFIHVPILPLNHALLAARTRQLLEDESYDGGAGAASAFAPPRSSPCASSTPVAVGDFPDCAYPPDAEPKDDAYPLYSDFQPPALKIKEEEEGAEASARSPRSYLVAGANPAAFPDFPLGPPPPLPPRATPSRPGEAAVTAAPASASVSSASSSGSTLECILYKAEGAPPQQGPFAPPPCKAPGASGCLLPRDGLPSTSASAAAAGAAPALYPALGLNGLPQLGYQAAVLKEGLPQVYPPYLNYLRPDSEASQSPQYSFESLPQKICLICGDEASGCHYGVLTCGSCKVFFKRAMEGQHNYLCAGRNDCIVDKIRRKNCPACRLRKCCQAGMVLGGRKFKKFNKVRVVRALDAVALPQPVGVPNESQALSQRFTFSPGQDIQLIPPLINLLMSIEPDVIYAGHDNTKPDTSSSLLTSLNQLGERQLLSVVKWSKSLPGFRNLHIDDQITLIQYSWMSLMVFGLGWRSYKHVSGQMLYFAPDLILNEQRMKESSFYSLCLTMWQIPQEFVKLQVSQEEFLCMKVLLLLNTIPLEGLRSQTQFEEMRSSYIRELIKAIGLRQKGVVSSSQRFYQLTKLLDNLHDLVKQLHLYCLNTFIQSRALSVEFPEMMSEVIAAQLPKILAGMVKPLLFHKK
Experiment: In vitro functional assay for progesterone receptor (PR) antagonism: inhibition of progesterone-induced alkaline phosphatase expression in T47D cells
Format: cell-based
Conditions: Screen 1.0, functional progesterone antagonism; antagonist format (5 nM P4), alkaline phosphatase inhibition in T47D human mammary carcinoma cells
Source text: 1.0 In vitro Functional Assay for Progesterone Receptor (PR) Antagonism
The assay for PR antagonism takes advantage of the extensively reported modulation of alkaline phosphatase (AP) expression in human breast T47D mammary carcinoma cells {Beck et al., D. P. (1993). The progesterone antagonist RU486 acquires agonist activity upon stimulation of cAMP signalling pathways. Proc Natl Acad Sci USA 90, 4441-4445; Fensome et al. (2002). New progesterone receptor antagonists: 3,3-disubstituted-5-aryloxindoles. Bioorg Med Chem Left 12, 3487-3490; Zhang et al., (2002a). 6-Aryl-1,4-dihydro-benzo d 1,3 oxazin-2-ones: a novel class of potent, selective, and orally active nonsteroidal progesterone receptor antagonists. Journal of Medicinal Chemistry 45, 4379-4382; Zhang et al., (2003). Novel 6-aryl-1,4-dihydrobenzo d oxazine-2-thiones as potent, selective, and orally active nonsteroidal progesterone receptor agonists. Bioorganic & Medicinal Chemistry Letters 13, 1313-1316; Zhang et al., (2002b). Potent nonsteroidal progesterone receptor agonists: synthesis and SAR study of 6-aryl benzoxazines. Bioorganic & Medicinal Chemistry Letters 12, 787-790; Zhang, Z. et al., (2000). In vitro characterization of trimegestone: a new potent and selective progestin. Steroids 65, 637-643.}. […] In the absence of progesterone any agonist activity is also observed as an induction of AP activity. By running the assay in two formats (+/−progesterone (P4)), compounds behaving as PR antagonists, agonists or partials can be identified.
The materials required to grow T47D cells and perform the progesterone-induced AP assay are outlined in Table 1.
Briefly, T47D cells are grown by propagating in DMEM+10% FBS+2 mM Glutamax at 37° C./5% CO2. At 80-90% confluence, the media is exchanged for phenol red free DMEM+5% CS-FCS (Assay media) and cultured for a further 24 hrs at 37° C./5% CO2. T47D cells are then plated at 2.5×10^4 cells/well in 100 μL assay media in sufficient 96 well plates for the assay, in triplicates of each condition. For example, for a 5 point IC50 curve on one compound, this is equivalent to 36 wells (2×18 wells, ±P4). These plates are then cultured for 24 hrs at 37° C./5% CO2, leaving the outside wells blank by the addition of 200 μL PBS.
A 10 mM stock solution of compounds is prepared in DMSO (stored −20° C. in 10 µL aliquots). A 10 mM DMSO stock of RU486 is used as a standard pure PR antagonist. The compounds under investigation are added to assay medium, or a mixture of 0.05% pluronic acid in PBS, ±10 nM P4 to give a final concentration of 20 µM (i.e. 10 µL of the 10 mM stock to […] assay medium ±10 nM P4). The samples are mixed thoroughly and serial dilutions of compounds from 10 µM to 0.1 nM in a 96 well plate, are prepared as follows:
The outside wells are left blank. Assay medium (225 μL) is added to one half of the plate (−P4), rows 3-8, and to the other half of the plate, assay medium +10 nM P4. To row 2, 250 μL of the top concentration of compound (20 μM±10 nM P4) is added. 25 μL of the […] stock from row 2 is removed and added to the 225 μL of assay medium ±10 nM P4 in row 3 and thoroughly mixed. This process is repeated down the plate to row 7 to achieve serial dilutions. The vehicle control is adjusted to contain 0.1% DMSO (i.e. 20 μL to 10 mL assay medium ±10 nM P4 to give a concentration of 0.2% DMSO, add 250 μL to row 8).
100 μL of reagent from the dilution plates are transferred into the corresponding wells containing T47D cells in 100 μL assay medium, to give a final concentration of 10 μM to 0.1 nM compound (5 nM P4 antagonist format). The cells for 20 hrs at 37° C./5% CO2., then media is removed, cells washed with PBS (200 μL) and lysed by placing the cells at −80° C. for 15 min and thawing at room temp. The Freeze-thaw lysis is repeated, then PBS (50 μL) is added to each well. […]

IC50 [nM] | SMILES
5 | CCc1nn(CC#N)c(CC)c1Oc1cc(C)c(C#N)c(C)c1 [Example 87, 4-{[1-(Cyanomethyl)-3,5-diethyl-1H-pyrazol-4-yl]oxy}-2,6-dimethylbenzonitrile]
6 | CCCn1nc(CC)c(Oc2ccc(C#N)cc2)c1CC [Example 146, 4-[(3,5-Diethyl-1-propyl-1H-pyrazol-4-yl)oxy]benzonitrile]
3 | Cc1cc(Oc2c(C3CC3)nn(Cc3cncnc3)c2C2CC2)cc(C)c1C#N [Example 126, 4-({3,5-Dicyclopropyl-1-[(pyrimidin-5-yl)methyl]-1H-pyrazol-4-yl}oxy)-2,6-dimethylbenzonitrile]
3 | CNC(=O)Cn1nc(C2CC2)c(Oc2cc(C)c(C#N)c(C)c2)c1C1CC1 [Example 65, 2-[4-(4-Cyano-3,5-dimethylphenoxy)-3,5-dicyclopropyl-1H-pyrazol-1-yl]-N-methyl-acetamide]
4 | CNC(=O)Cn1nc(C2CC2)c(Oc2cc(C)c(C#N)c(C)c2)c1C [Example 71, 2-[4-(4-Cyano-3,5-dimethyl-phenoxy)-3-cyclopropyl-5-methyl-1H-pyrazol-1-yl]-N-methyl-acetamide]
9 | Cc1cc(Oc2c(C3CC3)n[nH]c2C2CC2)cc(C)c1C#N [Example 4, 4-[(3,5-Dicyclopropyl-1H-pyrazol-4-yl)oxy]-2,6-dimethylbenzonitrile]

System: not given
Experiment: not given
Conditions: not given

melting point [°C] | SMILES
82 | CCc1nn(CCO)c(CC)c1Oc1ccc(C#N)cc1 [Example 21, 4-[3,5-Diethyl-1-(2-hydroxy-ethyl)-1H-pyrazol-4-yloxy]-benzonitrile]
97 | CCc1nn(CCO)c(CC)c1Oc1cc(C)c(C#N)c(C)c1 [Example 27, 4-[3,5-Diethyl-1-(2-hydroxy-ethyl)-1H-pyrazol-4-yloxy]-2,6-dimethyl-benzonitrile]
85 | CCc1nn(CCO)c(CC)c1Oc1ccc(C#N)c(Cl)c1
163 | CNC(=O)Cn1nc(C2CC2)c(Oc2ccc(C#N)cc2)c1C1CC1 [Example 52, 2-[4-(4-Cyanophenoxy)-3,5-dicyclopropyl-1H-pyrazol-1-yl]-N-methylacetamide]
147 to 149 | CCOC(=O)Cn1nc(CC)c(Oc2ccc(C#N)cc2)c1CC [Example 35, Ethyl[4-(4-cyanophenoxy)-3,5-diethyl-1H-pyrazol-1-yl]acetate]
156 to 157 | CCOC(=O)Cn1nc(C2CC2)c(Oc2cc(C)c(C#N)c(C)c2)c1C1CC1 (hydrate or solvate) [Example 38, Ethyl[4-(4-cyano-3,5-dimethylphenoxy)-3,5-dicyclopropyl-1H-pyrazol-1-yl]acetate]
